Measured values: patent US8536202B2, “Triazole-substituted anthranilamides as pesticides” (Bayer Cropscience AG, priority 2010, dated 2013)
Like-named read-outs stand apart in the source and are kept apart here.

Key:
[1] = tested on: green peach aphid (Myzus persicae); assay: Myzus test (MYZUPE spray treatment), Use Example 4; format: in vivo; settings: 144 h, 100 g/ha, after 6 days, read-out: activity in %
Method: Solvents: 78 parts by weight of acetone • • 1.5 parts by weight of dimethylformamide
Emulsifier: 0.5 part by weight of alkylaryl polyglycol ether
An appropriate preparation of active compound is prepared by mixing 1 part by weight of active compound with the stated amounts of solvents and emulsifier and diluting the concentrate with emulsifier-containing water to the desired concentration.
Leaf discs of Chinese cabbage (Brassica pekinensis) infested by all stages of the green peach aphid (Myzus persicae) are sprayed with a preparation of active compound at the desired concentration.
After 6 days, the activity in % is ascertained. Here, 100% means that all of the aphids have been killed; 0% means that no aphids have been killed.

[2] = tested on: larvae of the mustard beetle (Phaedon cochleariae); assay: Phaedon test (PHAECO spray treatment); format: in vivo; settings: 168 h, read-out: activity in %
Summary of the method: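 Compound dissolved in acetone/dimethylformamide with alkylaryl polyglycol ether emulsifier, then diluted with emulsifier-containing water to test concentration for spray treatment of Phaedon cochleariae larvae. Activity scored after 7 days as % larvae killed (100% = all dead, 0% = none).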

[3] = tested on: caterpillars of the armyworm (Spodoptera frugiperda); assay: Spodoptera frugiperda test (SPODFR spray treatment); format: in vivo; settings: 168 h, read-out: activity in %
Summary of the method: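 Maize leaf discs sprayed with compound diluted in emulsifier-containing water (acetone/DMF solvent, alkylaryl polyglycol ether emulsifier), dried, then infested with armyworm caterpillars. Kill scored after 7 days as % mortality, 100% = all caterpillars dead, 0% = none.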

[4] = log P determination by HPLC on reversed-phase columns (EEC Directive 79/831 Annex V.A8); format: physicochemical; settings: pH 2.7
Summary of the method: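 log P from reversed-phase LC-MS retention at pH 2.7, 0.1% formic acid water/acetonitrile gradient 10–95% acetonitrile. Calibrated against C3–C16 unbranched alkan-2-ones, interpolating linearly between adjacent alkanones.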

[5] = reversed-phase C18 HPLC column, HPLC on reversed-phase columns (C 18), EEC Directive 79/831 Annex V.A8, read-out: logP
[6] = HPLC on reversed-phase columns (C 18), EEC Directive 79/831 Annex V.A8, read-out: logP

chromatographic logP [4, 5] | SMILES | pest or weed control at 100 g/ha [1] [%] | pest or weed control at 100 g/ha ([2]; 100 g/ha, after 7 days) [%] | pest or weed control at 100 g/ha ([3]; 100 g/ha, after 7 days) [%] | chromatographic logP [4] | pest or weed control at 100 g/ha [2] [%] | pest or weed control at 100 g/ha [3] [%] | chromatographic logP [4, 6]
 | Cc1cc(C#N)cc(C(N)=O)c1NC(=O)c1cc(Cn2ncc(C(F)(C(F)(F)F)C(F)(F)F)n2)nn1-c1ncccc1Cl [Example 255] | 80 | 100 | 100 | 3.19 |  |  | 
 | CSC[C@H](C)NC(=O)c1cc(I)cc(C)c1NC(=O)c1cc(Cn2ncc(C(F)(F)C(F)(F)F)n2)nn1-c1ncccc1Cl [Example 344] | 100 | 100 | 100 | 4.34 |  |  | 
 | Cc1cc(F)cc(C(=O)NC(C)C)c1NC(=O)c1cc(Cn2ncc(C(F)(F)F)n2)nn1-c1ncccc1Cl [Example 170] | 100 | 100 | 100 | 3.08 |  |  | 
 | CSC[C@H](C)NC(=O)c1cc(I)cc(C)c1NC(=O)c1cc(Cn2cc(C(F)(F)C(F)(F)F)nn2)nn1-c1ncccc1Cl [Example 316] | 100 | 100 | 100 | 3.91 |  |  | 
 | NC(=O)c1cc(Cl)cc(Cl)c1NC(=O)c1cc(Cn2cc(C(F)(F)F)nn2)nn1-c1ncccc1Cl [Example 203] | 100 | 100 | 100 | 2.43 |  |  | 
3.11 | Cc1cc(C#N)cc(C(=O)NC(C)C)c1NC(=O)c1cc(Cn2cc(C(F)(F)F)nn2)nn1-c1ncccc1Br [Example 6] | 90 | 100 | 100 |  |  |  | 
 | CCNC(=O)c1cc(C#N)cc(C)c1NC(=O)c1cc(Cn2ncc(C(F)(F)C(F)(F)F)n2)nn1-c1ncccc1Cl [Example 363] | 100 | 100 | 100 | 3.26 |  |  | 
 | Cc1cc(C#N)cc(C(N)=O)c1NC(=O)c1cc(Cn2nc(C(F)(F)F)c(C(F)(F)F)n2)nn1-c1ncccc1Cl [Example 396] | 90 | 100 | 100 | 3.21 |  |  | 
 | Cc1cc(C#N)cc(C(=O)NC(C)C)c1NC(=O)c1cc(Cn2cc(C(F)(F)F)nn2)nn1-c1ncccc1Cl [Example 181] | 90 |  | 100 | 2.67 |  |  | 
 | CCNC(=O)c1cc(Cl)cc(Cl)c1NC(=O)c1cc(Cn2ncc(C(F)(F)F)n2)nn1-c1ncccc1Cl [Example 149] |  | 100 | 100 | 3.2 |  |  | 
4.23 | O=C(NCC1CC1)c1cc(Cl)cc(Cl)c1NC(=O)c1cc(Cn2ncc(C(F)(C(F)(F)F)C(F)(F)F)n2)nn1-c1ncccc1Cl [Example 277] |  | 100 | 100 |  |  |  | 
 | CNC(=O)c1cc(Cl)cc(C)c1NC(=O)c1cc(Cn2nc3ccc(Br)cc3n2)nn1-c1ncccc1Cl [Example 87] |  | 100 | 100 | 3.39 |  |  | 
 | CNC(=O)c1cc(Cl)cc(C)c1NC(=O)c1cc(Cn2nnc3c(Br)cc(OC(F)(F)F)cc32)nn1-c1ncccc1Cl [Example 90] |  | 100 | 100 | 3.74 |  |  | 
 | CC(C)NC(=O)c1cc(Cl)cc(Cl)c1NC(=O)c1cc(Cn2cc(C(F)(C(F)(F)F)C(F)(F)F)nn2)nn1-c1ncccc1Cl [Example 243] |  | 100 | 100 | 3.79 |  |  | 
 | Cc1cc(C#N)cc(C(=O)NC(C)(C)C)c1NC(=O)c1cc(Cn2ncc(-c3ccc(Cl)cc3)n2)nn1-c1ncccc1Cl [Example 62] |  | 100 | 100 | 4.06 |  |  | 
 | CC(C)NC(=O)c1cc(Cl)cc(Cl)c1NC(=O)c1cc(Cn2ncc(C(F)(C(F)(F)F)C(F)(F)F)n2)nn1-c1ncccc1Cl [Example 275] |  | 100 | 100 | 4.17 |  |  | 
4.59 | Cc1cc(C#N)cc(C(=O)NC(C)(C)C)c1NC(=O)c1cc(Cn2nc3cc(OC(F)(F)F)cc(Br)c3n2)nn1-c1ncccc1Cl [Example 112] |  | 100 | 100 |  |  |  | 
 | CNC(=O)c1cc(Cl)cc(C)c1NC(=O)c1cc(Cn2cc(-c3ccc(Cl)cc3)nn2)nn1-c1ncccc1Cl [Example 17] |  | 100 | 100 | 3.57 |  |  | 
 | Cc1cc(Cl)cc(C(=O)NC2CC2)c1NC(=O)c1cc(Cn2ncc(C(F)(F)C(F)(F)C(F)(F)F)n2)nn1-c1ncccc1Cl [Example 370] |  |  |  |  | 100 | 100 | 3.99
 | CNC(=O)c1cc(Cl)cc(C)c1NC(=O)c1cc(Cn2ncc(-c3ccc(Cl)cc3)n2)nn1-c1ncccc1Cl [Example 25] |  | 100 | 100 | 3.62 |  |  | 
 | Cc1cc(I)cc(C(=O)NCC2CC2)c1NC(=O)c1cc(Cn2ncc(C(F)(F)C(F)(F)F)n2)nn1-c1ncccc1Cl [Example 345] |  | 100 | 100 | 4.22 |  |  | 
 | NC(=O)c1cc(Cl)cc(Cl)c1NC(=O)c1cc(Cn2ncc(C(F)(C(F)(F)F)C(F)(F)F)n2)nn1-c1ncccc1Cl [Example 279] |  | 100 | 100 | 3.46 |  |  | 
 | CNC(=O)c1cc(I)cc(C)c1NC(=O)c1cc(Cn2ncc(C(F)(F)C(F)(F)C(F)(F)F)n2)nn1-c1ncccc1Cl [Example 377] |  |  |  |  | 100 | 100 | 4
 | CSC[C@H](C)NC(=O)c1cc(C#N)cc(C)c1NC(=O)c1cc(Cn2cc(C(F)(F)F)nn2)nn1-c1ncccc1Cl [Example 183] |  | 100 | 100 | 2.95 |  |  | 
 | CNC(=O)c1cc(C#N)cc(C)c1NC(=O)c1cc(Cn2ncc(-c3ccc(F)cc3)n2)nn1-c1ncccc1Cl [Example 40] |  | 100 | 100 | 2.96 |  |  | 
4.64 | Cc1cc(Cl)cc(C(=O)NC(C)(C)C)c1NC(=O)c1cc(Cn2ncc(C(F)(C(F)(F)F)C(F)(F)F)n2)nn1-c1ncccc1Cl [Example 260] |  | 100 | 100 |  |  |  | 
 | Cc1cc(Cl)cc(C(=O)NC(C)(C)C)c1NC(=O)c1cc(Cn2ncc(C(F)(F)F)n2)nn1-c1ncccc1Cl [Example 140] |  | 100 | 100 | 3.85 |  |  | 
 | Cc1cc(I)cc(C(=O)NC(C)C)c1NC(=O)c1cc(Cn2cc(C(F)(C(F)(F)F)C(F)(F)F)nn2)nn1-c1ncccc1Cl [Example 235] |  | 100 | 100 | 4.09 |  |  | 
 | Cc1cc(I)cc(C(=O)NC2CC2)c1NC(=O)c1cc(Cn2ncc(C(F)(F)C(F)(F)F)n2)nn1-c1ncccc1Cl [Example 347] |  | 100 | 100 | 3.86 |  |  | 
